Results: article PMC5559406, “A human PET study of [^11C]HMS011, a potential radioligand for AMPA receptors” (EJNMMI Research, 2017)

Target: T1, human AMPA receptors
T1 construct: gene GRIA1; assay details only in supplement
Test: radioligand receptor binding assay (details in supplement)
Settings: labelled compound; noncompetitive (perampanel derivative); subunit not told

Kd: ~15 nM
SMILES: CNc1cccc(-n2cc(-c3ncccn3)cc(-c3ccccc3C#N)c2=O)c1 [[11C]HMS011, 2-(1-(3-([^11C]methylamino)phenyl)-2-oxo-5-(pyrimidin-2-yl)-1,2-dihydropyridin-3-yl) benzonitrile]
